Where “and” joins values, the source holds several entries; their conditions need not be identical. Equal values may be shown once.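 Dose response: 5 concentrations. Exposure: 48 h. Format: 96-well plates. Endpoint: linear interpolation; highest concentration if not reached. GI50 marks 50% less growth. TGI denotes the concentration required for complete inhibition of growth.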
Columns and labels:
Assay in all cases: inhibition of tumour cell growth, NCI panel, 48 h
[1] = tested on: OVCAR-3 ovarian
[2] = tested on: NCI-H226 lung
[3] = tested on: M14 melanoma
[4] = tested on: LOX IMVI melanoma
[5] = tested on: NCI-H522 lung
[6] = tested on: OVCAR-5 ovarian
[7] = tested on: COLO 205 colon
[8] = tested on: T-47D breast
[9] = tested on: MOLT-4 leukemia
[10] = tested on: OVCAR-4 ovarian
[11] = tested on: TK-10 renal
[12] = tested on: MCF7 breast
[13] = tested on: SK-MEL-5 melanoma
[14] = tested on: EKVX NSCLC
[15] = tested on: SR leukemia
[16] = tested on: SNB-75 CNS
[17] = tested on: OVCAR-8 ovarian
[18] = tested on: KM12 colon
[19] = tested on: NCI-H23 lung
[20] = tested on: CAKI-1 renal
[21] = tested on: K-562 leukemia
[22] = tested on: SK-OV-3 ovarian
[23] = tested on: ACHN renal
[24] = tested on: SF-295 CNS
[25] = tested on: HCT-116 colon
[26] = tested on: A498 renal
[27] = tested on: U251 CNS
[28] = tested on: SK-MEL-2 melanoma
[29] = tested on: CCRF-CEM leukemia
[30] = tested on: IGROV1 ovarian
[31] = tested on: SK-MEL-28 melanoma
[32] = tested on: SF-268 CNS
[33] = tested on: A549 NSCLC
[34] = tested on: MDA-MB-231 breast
[35] = tested on: HCC-2998 colon
[36] = tested on: MDA-MB-435
[37] = tested on: BT-549 breast
[38] = tested on: HT29 colon
[39] = tested on: HOP-62 NSCLC
[40] = tested on: 786-0 renal
[41] = tested on: SW-620 colon
[42] = tested on: SN12C renal
[43] = tested on: RXF 393 renal
[44] = tested on: NCI/ADR-RES ovarian
[45] = tested on: UACC-257 melanoma
[46] = tested on: DU-145 prostate
[47] = tested on: HOP-92 NSCLC
[48] = tested on: SNB-19 CNS
[49] = tested on: HCT-15 colon
[50] = tested on: PC-3 prostate
[51] = tested on: SF-539 CNS
[52] = tested on: UACC-62 melanoma
[53] = tested on: RPMI-8226 leukemia
[54] = tested on: HS 578T breast
[55] = tested on: UO-31 renal
[56] = tested on: NCI-H460 lung
[57] = tested on: MALME-3M melanoma
[58] = tested on: HL-60(TB) leukemia

Structure (SMILES): CCCCCCCCCCCCCCCCCC(=O)Nc1ccn(C2CCC(COP(=O)(O)O)O2)c(=O)n1 (centres undefined)
- TGI [1]: > 100000 nM
- TGI [2]: > 100000 nM
- TGI [3]: > 100000 nM
- TGI [4]: > 100000 nM
- TGI [5]: > 100000 nM
- TGI [6]: > 100000 nM
- TGI [7]: > 100000 nM
- TGI [8]: > 100000 nM
- TGI [9]: > 100000 nM
- TGI [10]: > 100000 nM
- TGI [11]: > 100000 nM
- TGI [12]: > 100000 nM
- TGI [13]: > 100000 nM
- TGI [14]: > 100000 nM
- TGI [15]: > 100000 nM
- TGI [16]: > 100000 nM
- TGI [17]: > 100000 nM
- TGI [18]: > 100000 nM
- TGI [19]: > 100000 nM
- TGI [20]: > 100000 nM
- TGI [21]: > 100000 nM
- TGI [22]: > 100000 nM
- TGI [23]: > 100000 nM
- TGI [24]: > 100000 nM
- TGI [25]: > 100000 nM
- TGI [26]: > 100000 nM
- TGI [27]: > 100000 nM
- TGI [28]: > 100000 nM
- TGI [29]: > 100000 nM
- TGI [30]: > 100000 nM
- TGI [31]: > 100000 nM
- TGI [32]: > 100000 nM
- TGI [33]: > 100000 nM
- TGI [34]: > 100000 nM
- TGI [35]: > 100000 nM
- TGI [36]: > 100000 nM
- TGI [37]: > 100000 nM
- TGI [38]: > 100000 nM
- TGI [39]: > 100000 nM
- TGI [40]: > 100000 nM
- TGI [41]: > 100000 nM
- TGI [42]: > 100000 nM
- TGI [43]: > 100000 nM
- TGI [44]: > 100000 nM
- TGI [45]: > 100000 nM
- TGI [46]: > 100000 nM
- TGI [47]: > 100000 nM
- TGI [48]: > 100000 nM
- TGI [49]: > 100000 nM
- TGI [50]: > 100000 nM
- TGI [51]: > 100000 nM
- TGI [52]: > 100000 nM
- TGI [53]: > 100000 nM
- TGI [54]: > 100000 nM
- TGI [55]: > 100000 nM

Structure (SMILES): CC(C)C[C@H](NC(=O)[C@H](Cc1cccc2ccccc12)NS(=O)(=O)c1cccc2cccnc12)B(O)O
- GI50 [1]: 0.595 nM
- TGI [1]: 14.9 nM and 30.9 nM
- TGI [2]: 0.542 nM
- GI50 [4]: 1.37 nM
- TGI [4]: 22.6 nM and < 19.9 nM
- TGI [5]: 35.2 nM
- GI50 [6]: 8.27 nM
- TGI [6]: 138 nM and 246 nM
- GI50 [7]: 28.8 nM
- TGI [7]: 3790 nM
- GI50 [8]: 0.928 nM
- TGI [8]: 26.9 nM and < 21.8 nM
- GI50 [9]: 0.334 nM
- TGI [9]: 2.28 nM
- TGI [10]: 173 nM
- GI50 [11]: 36 nM
- TGI [11]: 351 nM
- GI50 [12]: 0.525 nM
- TGI [12]: > 30500 nM
- GI50 [13]: 5.39 nM
- TGI [13]: 71.4 nM and 20.6 nM
- GI50 [14]: 109 nM
- TGI [14]: > 100000 nM
- GI50 [15]: 0.169 nM
- TGI [15]: 8.12 nM
- GI50 [17]: 117 nM
- TGI [17]: 409 nM and 2900 nM
- GI50 [18]: 17.8 nM
- TGI [18]: 114 nM and 179 nM
- GI50 [19]: 6.12 nM
- TGI [19]: 132 nM and 199 nM
- GI50 [20]: 32 nM
- TGI [20]: 198 nM and 1190 nM
- GI50 [21]: 9.4 nM
- TGI [21]: 163 nM
- GI50 [56]: 61.8 nM
- TGI [56]: 1350 nM
- TGI [22]: > 33800 nM
- TGI [23]: > 38800 nM
- GI50 [24]: 61.4 nM and 59.6 nM
- GI50 [25]: 1.01 nM
- TGI [25]: 20.3 nM and < 35.1 nM
- GI50 [26]: 3.42 nM
- TGI [26]: 222 nM and 126 nM
- GI50 [27]: 11 nM
- TGI [27]: 1450 nM
- TGI [28]: 95 nM and 83.3 nM
- GI50 [57]: 0.588 nM
- TGI [57]: 17.5 nM and 20.8 nM
- GI50 [30]: 33.1 nM
- TGI [30]: 298 nM and 301 nM
- GI50 [31]: 0.701 nM
- TGI [31]: 11.6 nM
- GI50 [58]: 0.204 nM
- GI50 [33]: 62.6 nM
- TGI [33]: > 28900 nM
- TGI [34]: 56.7 nM and 59.7 nM
- GI50 [35]: 17.4 nM
- TGI [35]: 14.9 nM and 38.9 nM
- GI50 [36]: 0.241 nM
- TGI [36]: 0.574 nM
- GI50 [37]: 0.863 nM
- TGI [37]: 39.5 nM
- GI50 [38]: 0.937 nM
- TGI [38]: 22 nM
- GI50 [39]: 51.1 nM
- TGI [39]: 563 nM
- GI50 [40]: 49.5 nM
- TGI [40]: 12800 nM
- GI50 [41]: 1.5 nM
- TGI [41]: 22.3 nM
- GI50 [42]: 7.1 nM
- TGI [42]: 230 nM and 109 nM
- GI50 [43]: 9.19 nM
- TGI [43]: 27.3 nM and < 23.7 nM
- TGI [44]: 17700 nM
- TGI [45]: 29 nM and 35.7 nM
- TGI [46]: 524 nM
- GI50 [47]: 29.9 nM
- TGI [47]: 54.7 nM and 93.8 nM
- TGI [48]: > 35300 nM
- GI50 [49]: 130 nM
- TGI [49]: 403 nM
- GI50 [50]: 53.4 nM
- TGI [50]: 817 nM and 418 nM
- GI50 [51]: 0.193 nM
- GI50 [52]: 4.88 nM
- TGI [52]: 38.5 nM and 125 nM
- GI50 [53]: 0.296 nM
- TGI [53]: 0.934 nM
- GI50 [54]: 1.37 nM
- TGI [54]: 17 nM
- GI50 [55]: 353 nM
- TGI [55]: 1060 nM

Structure (SMILES): COc1ccc2c(c1)CCN1CCCc3ccccc3C21 (centres undefined)
- TGI [1]: > 100000 nM
- TGI [2]: > 100000 nM
- TGI [3]: 37900 nM
- TGI [4]: 57900 nM
- TGI [5]: > 100000 nM
- TGI [6]: > 100000 nM
- TGI [7]: > 100000 nM
- TGI [8]: > 100000 nM
- TGI [9]: > 100000 nM
- TGI [10]: > 100000 nM
- TGI [11]: > 100000 nM
- TGI [12]: > 100000 nM
- TGI [13]: > 100000 nM
- TGI [14]: > 100000 nM
- TGI [15]: > 100000 nM
- TGI [16]: 78500 nM
- TGI [17]: > 100000 nM
- TGI [18]: > 100000 nM
- TGI [19]: > 100000 nM
- TGI [20]: > 100000 nM
- TGI [21]: > 100000 nM
- TGI [22]: > 100000 nM
- TGI [23]: > 100000 nM
- TGI [24]: > 100000 nM
- TGI [25]: 92800 nM
- TGI [26]: > 100000 nM
- TGI [27]: > 100000 nM
- TGI [28]: > 100000 nM
- TGI [29]: > 100000 nM
- TGI [30]: > 100000 nM
- TGI [31]: > 100000 nM
- TGI [32]: > 100000 nM
- TGI [33]: > 100000 nM
- TGI [34]: > 100000 nM
- TGI [35]: 80800 nM
- TGI [36]: 52500 nM
- TGI [37]: 86600 nM
- TGI [38]: > 100000 nM
- TGI [39]: > 100000 nM
- TGI [40]: > 100000 nM
- TGI [41]: > 100000 nM
- TGI [42]: > 100000 nM
- TGI [43]: > 100000 nM
- TGI [44]: > 100000 nM
- TGI [45]: > 100000 nM
- TGI [46]: > 100000 nM
- TGI [47]: > 100000 nM
- TGI [48]: > 100000 nM
- TGI [49]: > 100000 nM
- TGI [50]: > 100000 nM
- TGI [51]: 34700 nM
- TGI [52]: > 100000 nM
- TGI [53]: 58200 nM
- TGI [54]: > 100000 nM
- TGI [55]: > 100000 nM

Reference: PubChem BioAssay (NCI)
